Where two headings read alike, the source gives them in different places.
Legend:
Format in all cases: biochemical
JAK3 = JAK3 (Homo sapiens (Human), UniProt P52333); test: Enzyme assay (Assay Example^a 1), JAK3
Tyk2 = Tyk2 (Homo sapiens (Human), UniProt P29597); test: Enzyme assay (Assay Example^a 1), Tyk2; details: ATP 100 μM
JAK1 = JAK1 (Homo sapiens (Human), UniProt P23458); test: Enzyme assay (Assay Example^a 1), JAK1; details: ATP 100 μM

Sequence of JAK3 (P52333 whole entry): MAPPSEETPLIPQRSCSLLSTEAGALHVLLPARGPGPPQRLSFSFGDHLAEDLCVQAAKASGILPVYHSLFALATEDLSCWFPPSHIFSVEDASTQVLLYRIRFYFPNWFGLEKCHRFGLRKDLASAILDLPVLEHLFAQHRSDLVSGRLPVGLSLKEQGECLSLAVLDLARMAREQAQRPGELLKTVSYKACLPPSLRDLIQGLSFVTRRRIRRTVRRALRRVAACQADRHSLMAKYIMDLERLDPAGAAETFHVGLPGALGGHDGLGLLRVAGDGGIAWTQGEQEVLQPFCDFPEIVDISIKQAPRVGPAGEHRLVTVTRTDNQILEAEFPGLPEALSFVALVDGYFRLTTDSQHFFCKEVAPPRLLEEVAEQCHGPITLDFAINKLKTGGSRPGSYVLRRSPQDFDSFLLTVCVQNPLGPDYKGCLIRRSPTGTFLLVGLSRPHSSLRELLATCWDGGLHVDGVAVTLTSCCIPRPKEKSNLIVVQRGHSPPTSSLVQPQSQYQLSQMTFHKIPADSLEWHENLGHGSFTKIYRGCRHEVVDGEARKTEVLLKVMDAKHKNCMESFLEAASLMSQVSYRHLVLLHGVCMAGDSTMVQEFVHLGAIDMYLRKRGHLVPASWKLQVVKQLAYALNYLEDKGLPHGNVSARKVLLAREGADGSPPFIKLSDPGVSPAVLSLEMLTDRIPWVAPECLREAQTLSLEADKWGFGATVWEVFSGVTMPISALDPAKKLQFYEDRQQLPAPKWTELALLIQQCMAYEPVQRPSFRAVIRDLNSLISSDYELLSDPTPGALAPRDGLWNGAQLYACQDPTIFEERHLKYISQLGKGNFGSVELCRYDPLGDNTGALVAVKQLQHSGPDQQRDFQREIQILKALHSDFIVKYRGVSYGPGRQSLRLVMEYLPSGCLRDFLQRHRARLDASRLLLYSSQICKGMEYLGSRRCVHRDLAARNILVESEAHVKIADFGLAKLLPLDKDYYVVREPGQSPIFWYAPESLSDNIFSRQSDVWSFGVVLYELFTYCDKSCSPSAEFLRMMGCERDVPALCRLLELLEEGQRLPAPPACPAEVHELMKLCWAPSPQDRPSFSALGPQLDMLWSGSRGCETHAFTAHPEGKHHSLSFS
Sequence of Tyk2 (P29597 whole entry): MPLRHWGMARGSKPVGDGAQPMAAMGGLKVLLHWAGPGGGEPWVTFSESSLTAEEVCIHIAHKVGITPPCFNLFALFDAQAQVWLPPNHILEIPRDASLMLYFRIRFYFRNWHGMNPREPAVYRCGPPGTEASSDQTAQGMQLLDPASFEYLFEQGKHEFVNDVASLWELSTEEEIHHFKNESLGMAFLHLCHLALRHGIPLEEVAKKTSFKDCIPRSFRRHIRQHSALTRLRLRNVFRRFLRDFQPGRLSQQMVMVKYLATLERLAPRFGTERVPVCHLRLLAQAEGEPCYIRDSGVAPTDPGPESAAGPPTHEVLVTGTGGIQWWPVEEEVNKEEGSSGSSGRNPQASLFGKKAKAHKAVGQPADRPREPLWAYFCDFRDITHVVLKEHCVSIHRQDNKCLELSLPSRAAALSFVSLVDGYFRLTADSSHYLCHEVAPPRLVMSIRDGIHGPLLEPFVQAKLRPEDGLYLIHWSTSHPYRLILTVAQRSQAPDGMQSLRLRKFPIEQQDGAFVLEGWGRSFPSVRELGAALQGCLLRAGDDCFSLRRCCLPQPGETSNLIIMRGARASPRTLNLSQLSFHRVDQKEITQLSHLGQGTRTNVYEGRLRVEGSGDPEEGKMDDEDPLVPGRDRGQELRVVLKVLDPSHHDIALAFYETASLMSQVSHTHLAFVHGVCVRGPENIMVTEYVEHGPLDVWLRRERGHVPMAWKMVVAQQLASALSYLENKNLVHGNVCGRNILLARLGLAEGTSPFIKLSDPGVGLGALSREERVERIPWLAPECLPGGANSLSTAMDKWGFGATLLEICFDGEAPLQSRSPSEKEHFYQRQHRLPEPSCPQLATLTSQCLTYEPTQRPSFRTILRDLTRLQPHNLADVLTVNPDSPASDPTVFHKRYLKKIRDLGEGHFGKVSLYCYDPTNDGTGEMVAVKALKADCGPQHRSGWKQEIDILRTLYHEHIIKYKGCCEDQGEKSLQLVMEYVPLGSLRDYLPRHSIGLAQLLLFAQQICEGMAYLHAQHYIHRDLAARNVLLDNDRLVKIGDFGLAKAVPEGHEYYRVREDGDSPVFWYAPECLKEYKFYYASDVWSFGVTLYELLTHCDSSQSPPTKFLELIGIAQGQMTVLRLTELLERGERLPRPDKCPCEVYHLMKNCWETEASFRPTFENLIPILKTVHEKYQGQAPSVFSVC

SMILES	IC50 (Tyk2; Table^a 154) [µM]	IC50 (JAK1; Table^a 154) [µM]	IC50 (Tyk2) [µM]	IC50 (JAK1) [µM]	IC50 (JAK3; ATP 100 μM) [µM]	also measured
COC[C@H]1CC[C@H](c2nnn3cnc4[nH]ccc4c23)CC1 [compound 62]	0.14	–	–	–	–	IC50 (JAK3; ATP 100 μM, Table^a 154): 0.47 µM
FC(F)(F)CNC[C@H]1CC[C@H](c2nnn3cnc4[nH]ccc4c23)CC1 [compound 188, N-{[trans-4-(7H-pyrrolo[3,2-e][1,2,3]triazolo[1,5-c]pyrimidin-1-yl)cyclohexyl]methyl}-2,2,2-trifluoroethanamine]	0.063	0.0012	–	–	–	IC50 (JAK3; ATP 100 μM, Table^a 154): 0.11 µM
Cc1nc(C2CCCCC2)c2c3cc[nH]c3ncn12 [compound 1]	–	–	0.59	0.23	–	IC50 (JAK3): 1.4 µM
O=C(NCC(F)(F)F)[C@H]1CC[C@H](c2nnn3cnc4[nH]ccc4c23)CC1 [compound 354, trans-4-(7H-pyrrolo[3,2-e][1,2,3]triazolo[1,5-c]pyrimidin-1-yl)-N-(2,2,2-trifluoroethyl)cyclohexanecarboxamide]	–	–	0.16	0.0018	0.69	–
FC(F)(F)c1ccc(CN2CCCC(c3nnn4cnc5[nH]ccc5c34)C2)cc1 (racemic) [compound 23]	–	0.55	–	–	–	–
N#C/C(=C\N1CCC(c2nnn3cnc4[nH]ccc4c23)CC1)c1ccc(Cl)cc1 [compound 235, (Z)-3-[4-(7H-pyrrolo[3,2-e][1,2,3]triazolo[1,5-c]pyrimidin-1-yl)piperidin-1-yl]-2-(4-chlorophenyl)acrylonitrile]	–	–	> 1	0.056	> 1	–
Clc1ccc(CN[C@H]2CC[C@@H](c3nnn4cnc5[nH]ccc5c34)CC2)cc1 [197a, cis-N-(4-chlorobenzyl)-4-(7H-pyrrolo[3,2-e][1,2,3]triazolo[1,5-c]pyrimidin-1-yl)cyclohexanamine]	0.15	0.016	–	–	–	IC50 (JAK3; ATP 100 μM, Table^a 154): > 1 µM
OCCN(Cc1ccccc1)C[C@H]1CC[C@H](c2nnn3cnc4[nH]ccc4c23)CC1 [compound 268, 2-({[trans-4-(7H-pyrrolo[3,2-e][1,2,3]triazolo[1,5-c]pyrimidin-1-yl)cyclohexyl]methyl}(benzyl)amino)ethanol]	–	–	0.12	0.0044	0.72	–
Fc1ccc(NC[C@H]2CC[C@H](c3nnn4cnc5[nH]ccc5c34)CC2)c(C(F)(F)F)c1 [compound 117]	–	0.039	–	–	–	IC50 (JAK3): > 1 µM
c1cncc(CN2CCCC(c3nnn4cnc5[nH]ccc5c34)C2)c1 (racemic) [compound 18]	> 1	–	–	–	–	–
Cc1ccc(CN2CCC(c3nnn4cnc5[nH]ccc5c34)CC2)s1 [compound 236, 1-{1-[(5-methylthiophen-2-yl)methyl]piperidin-4-yl}-7H-pyrrolo[3,2-e][1,2,3]triazolo[1,5-c]pyrimidine]	–	–	> 1	0.0068	0.45	–
O=C(OCc1ccccc1)N1CCCC(c2ncn3cnc4[nH]ccc4c23)C1 (racemic) [compound 3]	–	–	–	0.057	1.4	–
N#Cc1cc(CN2CCC(c3nnn4cnc5[nH]ccc5c34)CC2)ccc1F [compound 223, 5-{[4-(7H-pyrrolo[3,2-e][1,2,3]triazolo[1,5-c]pyrimidin-1-yl)piperidin-1-yl]methyl}-2-fluorobenzonitrile]	–	–	> 1	0.015	0.94	–
O=S(=O)(C[C@H]1CC[C@H](c2nnn3cnc4[nH]ccc4c23)CC1)c1ccc(F)cc1 [compound 365, 1-(trans-4-{[(4-fluorophenyl)sulfonyl]methyl}cyclohexyl)-7H-pyrrolo[3,2-e][1,2,3]triazolo[1,5-c]pyrimidine]	–	–	0.34	0.0054	0.74	–
CC1(C)CC1NC[C@H]1CC[C@H](c2nnn3cnc4[nH]ccc4c23)CC1 (stereo partly drawn) [compound 290, N-{[trans-4-(7H-pyrrolo[3,2-e][1,2,3]triazolo[1,5-c]pyrimidin-1-yl)cyclohexyl]methyl}-2,2-dimethylcyclopropanamine]	–	–	0.27	0.0076	0.5	–
FC(F)(F)c1ccc(CN2CCC(c3[nH]c(=S)n4cnc5[nH]ccc5c34)CC2)cc1 [compound 86]	–	0.02	–	–	–	–
FC1(F)CCN(C[C@H]2CC[C@H](c3nnn4cnc5[nH]ccc5c34)CC2)C1 [compound 328, 1-{trans-4-[(3,3-difluoropyrrolidin-1-yl)methyl]cyclohexyl}-7H-pyrrolo[3,2-e][1,2,3]triazolo[1,5-c]pyrimidine]	–	–	0.9	0.0073	0.53	–
OC(CN[C@H]1CC[C@H](c2nnn3cnc4[nH]ccc4c23)CC1)c1ccccc1 (mixture of isomers) [202b, 2-{[trans-4-(7H-pyrrolo[3,2-e][1,2,3]triazolo[1,5-c]pyrimidin-1-yl)cyclohexyl]amino}-1-phenylethanol]	0.26	–	–	–	–	–
Fc1ccc(CNC[C@H]2CC[C@H](c3nnn4cnc5[nH]ccc5c34)CC2)cc1C(F)(F)F [compound 112]	–	0.0049	–	–	–	–
O=C1NOC[C@H]1NC[C@H]1CC[C@H](c2nnn3cnc4[nH]ccc4c23)CC1 [compound 288, (R)-4-({[trans-4-(7H-pyrrolo[3,2-e][1,2,3]triazolo[1,5-c]pyrimidin-1-yl)cyclohexyl]methyl}amino)isoxazolidin-3-one]	–	–	0.37	0.046	–	–
O=C(OCc1ccccc1)N1CCC(c2nnn3cnc4[nH]ccc4c23)C1 (racemic) [compound 211, Benzyl 3-(7H-pyrrolo[3,2-e][1,2,3]triazolo[1,5-c]pyrimidin-1-yl)pyrrolidine-1-carboxylate]	–	0.12	–	–	–	–

SMILES	IC50 (Tyk2; Table^a 154) [µM]	IC50 (JAK1; Table^a 154) [µM]	IC50 (Tyk2) [µM]	IC50 (JAK1) [µM]	IC50 (JAK3; ATP 100 μM) [µM]	also measured
COCCN(C)C[C@H]1CC[C@H](c2nnn3cnc4[nH]ccc4c23)CC1 [compound 325, N-{[trans-4-(7H-pyrrolo[3,2-e][1,2,3]triazolo[1,5-c]pyrimidin-1-yl)cyclohexyl]methyl}-2-methoxy-N-methylethanamine]	–	–	0.88	0.011	> 1	–
OC1(CNC[C@H]2CC[C@H](c3nnn4cnc5[nH]ccc5c34)CC2)CCCCC1 [compound 313, 1-[({[trans-4-(7H-pyrrolo[3,2-e][1,2,3]triazolo[1,5-c]pyrimidin-1-yl)cyclohexyl]methyl)amino)methyl]cyclohexanol]	–	–	0.51	0.0084	> 1	–
CC(C)(C)OC(=O)N[C@H]1CC[C@H](c2nnn3cnc4[nH]ccc4c23)CC1 [compound 59]	> 1	–	–	–	–	IC50 (JAK3; ATP 100 μM, Table^a 154): > 1 µM
COc1ccc(CN2CCC(c3nnn4cnc5[nH]ccc5c34)CC2)cn1 [compound 170, 1-{1-[(6-methoxypyridin-3-yl)methyl]piperidin-4-yl}-7H-pyrrolo[3,2-e][1,2,3]triazolo[1,5-c]pyrimidine]	> 1	0.021	–	–	–	IC50 (JAK3; ATP 100 μM, Table^a 154): 0.52 µM
c1cc2c(ncn3nnc(C4CC5CCC4C5)c23)[nH]1 (stereo not shown) [compound 65]	0.025	–	–	–	–	IC50 (JAK3; ATP 100 μM, Table^a 154): 0.15 µM
Clc1ccc(CN[C@H]2CC[C@H](c3nnn4cnc5[nH]ccc5c34)CC2)cc1 [197b, trans-N-(4-chlorobenzyl)-4-(7H-pyrrolo[3,2-e][1,2,3]triazolo[1,5-c]pyrimidin-1-yl)cyclohexanamine]	0.11	0.0054	–	–	–	IC50 (JAK3; ATP 100 μM, Table^a 154): 0.52 µM
CC(c1ccccc1)N1CCC(c2nnn3cnc4[nH]ccc4c23)CC1 (racemic) [compound 245, 1-[1-(1-phenylethyl)piperidin-4-yl]-7H-pyrrolo[3,2-e][1,2,3]triazolo[1,5-c]pyrimidine]	–	–	> 1	–	> 1	–
N#Cc1ccc(CNC(=O)[C@H]2CC[C@H](c3nnn4cnc5[nH]ccc5c34)CC2)cc1 [compound 350, trans-N-(4-cyanobenzyl)-4-(7H-pyrrolo[3,2-e][1,2,3]triazolo[1,5-c]pyrimidin-1-yl)cyclohexanecarboxamide]	–	–	0.54	0.008	> 1	–
FC(F)CN[C@H]1CC[C@H](c2nnn3cnc4[nH]ccc4c23)CC1 [399b, trans-N-(2,2-difluoroethyl)-4-(7H-pyrrolo[3,2-e][1,2,3]triazolo[1,5-c]pyrimidin-1-yl)cyclohexanamine]	–	–	0.2	0.0075	> 1	–
FC(F)(F)C(N[C@H]1CC[C@H](c2nnn3cnc4[nH]ccc4c23)CC1)C(F)(F)F [400b, trans-N-(1,1,1,3,3,3-hexafluoropropan-2-yl)-4-(7H-pyrrolo[3,2-e][1,2,3]triazolo[1,5-c]pyrimidin-1-yl)cyclohexanamine]	–	–	0.84	0.042	> 1	–
O=C(Nc1nncs1)N1CCCC(c2nnn3cnc4[nH]ccc4c23)C1 (racemic) [compound 20]	0.42	0.019	–	–	–	–
FC(F)(F)c1cc(CN2CCC(c3nnn4cnc5[nH]ccc5c34)CC2)cc(C(F)(F)F)c1 [compound 47]	> 1	0.78	–	–	–	–
O[C@@H](CNC[C@H]1CC[C@H](c2nnn3cnc4[nH]ccc4c23)CC1)c1ccccc1 [compound 276, (R)-2-({[trans-4-(7H-pyrrolo[3,2-e][1,2,3]triazolo[1,5-c]pyrimidin-1-yl)cyclohexyl]methyl}amino)-1-phenylethanol]	–	–	0.032	–	–	–
c1ccc(CN2CCCC(c3nnn4cnc5[nH]ccc5c34)C2)cc1 (racemic) [compound 16]	–	0.28	–	–	–	IC50 (JAK3; ATP 100 μM, Table^a 154): 5.3 µM
CC(C)(C)OC(=O)N1CCCC(c2nnn3cnc4[nH]ccc4c23)C1 (racemic) [compound 13]	> 1	–	–	–	–	–
CC1CCN(C(=O)CC#N)CC1c1nnn2cnc3[nH]ccc3c12 (stereo not shown) [compound 12]	0.91	0.021	–	–	–	–
O[C@H](CN[C@H]1CC[C@H](c2nnn3cnc4[nH]ccc4c23)CC1)c1ccccc1 [203b, (S)-2-{[trans-4-(7H-pyrrolo[3,2-e][1,2,3]triazolo[1,5-c]pyrimidin-1-yl)cyclohexyl]amino}-1-phenylethanol]	0.33	–	–	–	–	–
N[C@H]1CC[C@H](c2nnn3cnc4[nH]ccc4c23)CC1 [compound 61]	0.44	–	–	–	–	–
CO[C@H]1CC[C@H](c2nnn3cnc4[nH]ccc4c23)CC1 [compound 63]	–	0.011	–	–	–	–
OC(CNC[C@H]1CC[C@H](c2nnn3cnc4[nH]ccc4c23)CC1)c1ccccc1 (mixture of isomers) [compound 186, 2-({[trans-4-(7H-pyrrolo[3,2-e][1,2,3]triazolo[1,5-c]pyrimidin-1-yl)cyclohexyl]methyl}amino)-1-phenylethanol]	0.044	–	–	–	–	–

From patent US9216999B2, “Substituted pyrrolo[2,3-h][1,6]naphthyridines and compositions thereof as JAK inhibitors” (priority 2011, dated 2015)
